Measured values: EPA's ToxRefDB 2

Experiments:
rat [1] = details: Prenatal developmental toxicity study, sprague dawley, Oral, Gavage/Intubation, dose end: 15 GD
dog [2] = details: Subchronic oral toxicity in nonrodent, beagle, Feed, dose end: 13 week, group: systemic
rat [3] = details: Prenatal developmental toxicity study, sprague dawley, Oral, Gavage/Intubation, dose end: 15 GD; remark: listed apart in the source
mouse [4] = details: Subchronic oral toxicity in rodents, b6c3f1, Feed, dose end: 90 day, group: systemic
rat [5] = details: Developmental neurotoxicity study; wistar; Oral; Gavage/Intubation; dose end: 90 PND; group: cannot be grouped; systemic / in life observation / clinical signs / poor maternal care + systemic / in life observation / clinical signs / grip strength + …
rabbit = details: Prenatal developmental toxicity study, new zealand white, Oral, Gavage/Intubation, dose end: 19 GD
dog [6] = details: Chronic toxicity, beagle, Oral, Feed, dose end: 52 week, group: systemic
rat [7] = details: Subchronic oral toxicity in rodents, fischer, Feed, dose end: 90 day, group: systemic, systemic / hematology / hematocrit (hct) / hematocrit (hct) + systemic / hematology / hemoglobin (hgb) / hemoglobin (hgb) + systemic / …
rat [8] = details: Prenatal developmental toxicity study, sprague dawley, Oral, Gavage/Intubation, dose end: 15 GD; remark: listed apart in the source
mouse [9] = details: Carcinogenicity, cd1, Oral, Feed, dose end: 18 month, group: systemic
[10] = group: developmental, developmental / developmental malformation / bone / incomplete ossification + developmental / developmental malformation / bone / …
[11] = group: maternal, systemic / organ weight / spleen / relative to brain weight + systemic / pathology microscopic / spleen / hematopoietic cell proliferation
[12] = group: maternal, systemic / organ weight / spleen / relative to brain weight + systemic / pathology microscopic / spleen / hematopoietic cell proliferation…
[13] = systemic / clinical chemistry / alkaline phosphatase (alp/alk) / alkaline phosphatase (alp/alk) + systemic / hematology / hematocrit (hct…
[14] = group: developmental, developmental / developmental malformation / bone / ossification sites + systemic / in life observation / body weight / fetal weight
[15] = group: developmental, developmental / developmental malformation / bone / ossification sites + systemic / in life observation / body weight / fetal weight + …
[16] = systemic / hematology / erythrocyte (rbc) count differential / erythrocyte (rbc) + systemic / hematology / hematocrit (hct) / hematocrit (…
[17] = group: developmental, systemic / in life observation / body weight / fetal weight
[18] = group: developmental, systemic / in life observation / body weight / fetal weight + developmental / developmental malformation / bone / fused + developmental / …
[19] = group: maternal, reproductive / reproductive performance / aborted / aborted + reproductive / reproductive performance / resorptions / resorptions + systemic…
[20] = systemic / hematology / microcytosis / microcytosis + systemic / clinical chemistry / albumin / albumin + systemic / clinical chemistry / …
[21] = group: maternal, reproductive / reproductive performance / postimplantation loss / postimplantation loss + reproductive / reproductive performance / …
[22] = systemic / pathology microscopic / adrenal gland / amyloid deposition + systemic / pathology microscopic / kidney / amyloid deposition + …

## Cc1nn(-c2cc(NS(C)(=O)=O)c(Cl)cc2Cl)c(=O)n1C(F)F [Sulfentrazone]
Rat [1]; [10]
  LEL: 25 mg/kg/day
  LOAEL: 25 mg/kg/day
  NEL: 10 mg/kg/day
  NOAEL: 10 mg/kg/day
Rat [1]; [11]
  LOAEL: 50 mg/kg/day
Rat [1]; [12]
  LEL: 50 mg/kg/day
  NEL: 25 mg/kg/day
  NOAEL: 25 mg/kg/day
Dog [2]; [13]
  LOAEL: 57 mg/kg/day
  NEL: 10 mg/kg/day
  NOAEL: 28 mg/kg/day
Dog [2]; systemic / organ weight / liver / absolute
  LEL: 28 mg/kg/day
Rat [3]; [14]
  LEL: 25 mg/kg/day
  LOAEL: 25 mg/kg/day
Rat [3]; [15]
  NEL: 10 mg/kg/day
  NOAEL: 10 mg/kg/day
Rat [3]; [11]
  LOAEL: 50 mg/kg/day
Rat [3]; [12]
  LEL: 50 mg/kg/day
  NEL: 25 mg/kg/day
  NOAEL: 25 mg/kg/day
Mouse [4]; [16]
  LOAEL: 108 mg/kg/day
  NEL: 17.8 mg/kg/day
  NOAEL: 60 mg/kg/day
Mouse [4]; systemic / hematology / hematocrit (hct) / hematocrit (hct)
  LEL: 60 mg/kg/day
Rat [5]
  LEL: 25 mg/kg/day
  LOAEL: > 50 mg/kg/day
  NEL: < 25 mg/kg/day
  NOAEL: ≥ 50 mg/kg/day
rabbit; [17]
  LOAEL: 375 mg/kg/day
rabbit; group: developmental, systemic / in life observation / body weight / fetal weight + developmental / developmental malformation / bone / fused
  LEL: 250 mg/kg/day
rabbit; [18]
  NEL: 100 mg/kg/day
  NOAEL: 250 mg/kg/day
rabbit; [19]
  LOAEL: 375 mg/kg/day
  NEL: 100 mg/kg/day
  NOAEL: 250 mg/kg/day
rabbit; group: maternal, reproductive / reproductive performance / resorptions / resorptions + systemic / in life observation / body weight / body weight gain + …
  LEL: 250 mg/kg/day
Dog [6]; systemic / hematology / microcytosis / microcytosis
  LOAEL: 61.2 mg/kg/day
Dog [6]; [20]
  NEL: 9.9 mg/kg/day
  NOAEL: 24.9 mg/kg/day
Dog [6]; systemic / pathology microscopic / gallbladder / pigmentation
  LEL: 24.9 mg/kg/day
Rat [7]
  LOAEL: 65.8 mg/kg/day
  NOAEL: 19.9 mg/kg/day
Rat [8]; [17]
  LEL: 50 mg/kg/day
  LOAEL: > 50 mg/kg/day
  NEL: 25 mg/kg/day
  NOAEL: ≥ 50 mg/kg/day
Rat [8]; [21]
  LEL: 50 mg/kg/day
  LOAEL: > 50 mg/kg/day
  NEL: 25 mg/kg/day
  NOAEL: ≥ 50 mg/kg/day
Mouse [9]; systemic / hematology / hematocrit (hct) / hematocrit (hct) + systemic / hematology / hemoglobin (hgb) / hemoglobin (hgb)
  LOAEL: 160 mg/kg/day
Mouse [9]; systemic / hematology / hematocrit (hct) / hematocrit (hct) + systemic / hematology / hemoglobin (hgb) / hemoglobin (hgb) + systemic / …
  NOAEL: 93.9 mg/kg/day
Mouse [9]; [22]
  LEL: 46.6 mg/kg/day
  NEL: < 46.6 mg/kg/day
